Key:
[1] = target: T1, Complex of human HDAC3 and human NCOR2 (Homo sapiens, UniProt O15379); assay: HDAC3 biochemical assay, AMC-labeled peptide substrate; conditions: read-out: HDAC Isoform IC50 (nM) 3
T1 construct: full length with C-terminal His tag, MW=49.7 kDa; His (C); host or cells: baculovirus expression system (co-expressed)
Experimental: (§1) Activity against all zinc-dependent HDACs 1 to 11 was assessed by using an acetylated AMC-labeled peptide substrate. The substrate RHKK(Ac)AMC was used for HDAC1, HDAC2, HDAC3, HDAC6 and HDAC10; the substrate used for HDAC8 was RHK(Ac)K(Ac)AMC. Activity against the class IIa HDACs (HDAC4, 5, 7, 9) and HDAC11 was determined using a class IIa-specific substrate, BOC-Lys(trifluoroacetyl)-AMC (“Trifluoroacetyl Lysine”; see Lahm et al, 2007, PNAS, 104, 17335-17340). All assays were based on the AMC-labeled substrate and developer combination.
(§2) The protocol involved a two-step reaction: first, the substrate with the acetylated lysine side chain is incubated with a sample containing HDAC activity, to produce the deacetylated products, which are then digested in the second step by the addition of developer to produce the fluorescent signal proportional to the amount of deacetylated substrates.
Complex of human HDAC3 (GenBank Accession No. NM_003883), full length with C-terminal His tag, MW=49.7 kDa, and human NCOR2 (amino acid 395-489) (GenBank Accession No. NM_006312), N-terminal GST tag, MW=37.6 kDa, co-expressed in baculovirus expression system.
(§3) Assay Buffer: 50 mM Tris-HCl, pH8.0, 137 mM NaCl, 2.7 mM KCl, 1 mM MgC2. Before use, 1 mg/mL BSA and DMSO are added.
HDAC3: 0.1 ng/ul HDAC3 and 50 μM HDAC substrate are in the reaction buffer with 1% DMSO final. Incubate for 1 hour at 30° C.
(§4) Stage 1: Deacetylation of substrate by incubation of HDAC enzymes with compounds
(§5) Stage 2: Development by addition of Developer to digest the deacetylated substrate, and generate the fluorescent colour; Detection: 360/460 Ex/Em

Human HDAC4 = target: T2, Human HDAC4 (Homo sapiens, UniProt P56524); assay: HDAC4 biochemical assay, class IIa-specific substrate; conditions: read-out: HDAC Isoform IC50 (nM) 4
T2 construct: amino acids 627-1085 with N-terminal GST tag; GST (N); host or cells: baculovirus expression system
T2 sequence (P56524 627-1084 limits assumed): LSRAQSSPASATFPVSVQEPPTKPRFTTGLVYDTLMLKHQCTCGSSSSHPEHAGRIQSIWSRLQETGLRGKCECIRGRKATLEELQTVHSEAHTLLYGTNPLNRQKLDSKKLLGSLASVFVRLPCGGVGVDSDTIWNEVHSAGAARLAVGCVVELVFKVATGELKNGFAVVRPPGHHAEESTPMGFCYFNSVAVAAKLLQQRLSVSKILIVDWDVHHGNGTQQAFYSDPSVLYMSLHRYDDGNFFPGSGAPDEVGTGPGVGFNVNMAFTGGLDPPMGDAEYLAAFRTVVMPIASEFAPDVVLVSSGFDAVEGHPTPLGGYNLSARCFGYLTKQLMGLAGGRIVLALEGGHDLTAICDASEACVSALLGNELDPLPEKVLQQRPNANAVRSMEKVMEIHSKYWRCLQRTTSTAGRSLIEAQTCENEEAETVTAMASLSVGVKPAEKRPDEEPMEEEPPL
Outline: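 Two-step fluorogenic read-out: deacetylated BOC-Lys(trifluoroacetyl)-AMC (50 μM) was digested by developer and measured at Ex/Em 360/460. Deacetylation by 0.004 ng/ul HDAC4 (aa 627-1085, N-terminal GST) ran 30 min at room temperature, pH 8.0 Tris buffer, 1 mg/mL BSA, 1% DMSO.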

Human HDAC8 = target: T3, Human HDAC8 (Homo sapiens, UniProt Q9BY41); assay: HDAC8 biochemical assay, AMC-labeled peptide substrate; conditions: read-out: HDAC Isoform IC50 (nM) 8
T3 construct: full length with C-terminal His tag, MW=42.6 kDa; His (C); host or cells: baculovirus expression system
T3 sequence (Q9BY41 1-377): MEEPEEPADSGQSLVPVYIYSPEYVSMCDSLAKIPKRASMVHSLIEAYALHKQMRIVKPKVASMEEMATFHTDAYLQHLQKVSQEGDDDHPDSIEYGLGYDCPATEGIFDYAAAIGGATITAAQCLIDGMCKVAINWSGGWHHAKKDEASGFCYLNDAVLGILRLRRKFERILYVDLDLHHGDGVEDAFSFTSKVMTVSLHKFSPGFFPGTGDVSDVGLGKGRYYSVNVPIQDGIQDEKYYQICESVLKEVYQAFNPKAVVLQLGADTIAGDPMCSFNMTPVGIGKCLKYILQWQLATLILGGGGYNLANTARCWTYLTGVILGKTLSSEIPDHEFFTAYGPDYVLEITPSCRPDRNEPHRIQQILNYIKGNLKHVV
Experimental: as §1, §2
Human HDAC8 (GenBankAccession No. NM_018486), full length with C-terminal His tag, MW=42.6 kDa, expressed in a baculovirus expression system.
as §3
HDAC8: 1 ng/ul HDAC8 and 100 µM HDAC8 substrate are in the reaction buffer with 1% DMSO final. Incubate for 2 hours at 30° C.
as §4, §5

T1 sequence (O15379 whole entry, canonical isoform): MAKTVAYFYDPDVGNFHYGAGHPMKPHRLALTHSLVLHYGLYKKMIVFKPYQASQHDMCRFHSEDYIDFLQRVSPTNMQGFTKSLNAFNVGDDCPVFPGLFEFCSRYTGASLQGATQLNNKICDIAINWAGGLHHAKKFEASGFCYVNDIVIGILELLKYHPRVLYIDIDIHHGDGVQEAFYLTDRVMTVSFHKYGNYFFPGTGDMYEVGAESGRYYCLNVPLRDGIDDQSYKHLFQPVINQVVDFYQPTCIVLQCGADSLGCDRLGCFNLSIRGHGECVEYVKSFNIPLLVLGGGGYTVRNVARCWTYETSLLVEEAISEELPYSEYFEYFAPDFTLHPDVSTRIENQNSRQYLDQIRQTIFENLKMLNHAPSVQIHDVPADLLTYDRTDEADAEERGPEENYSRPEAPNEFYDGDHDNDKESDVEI
T1 sequence (Q9Y618 395-489 partner limits assumed): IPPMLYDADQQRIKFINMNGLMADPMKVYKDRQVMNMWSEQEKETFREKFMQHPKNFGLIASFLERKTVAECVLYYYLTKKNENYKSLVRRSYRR

Row | IC50 [1] [nM] | IC50 (Human HDAC4) [nM] | IC50 (Human HDAC8) [nM] | SMILES
1 | > 10000 | ≤ 1000 | ≤ 10000 | CC(=O)Nc1cnnc(N(Cc2ccc(-c3noc(C(F)(F)F)n3)s2)c2cnccn2)c1 [Example FM, N-{6-[(Pyrazin-2-yl)({5-[5-(trifluoromethyl)-1,2,4-oxadiazol-3-yl]thiophen-2-yl}methyl)amino]pyridazin-4-yl}acetamide]
2 | > 10000 | ≤ 10000 | ≤ 10000 | O=C(c1cnnc(N(Cc2ccc(-c3noc(C(F)(F)F)n3)s2)c2cnccn2)c1)N1CC2(COC2)C1 [Example FZ, 5-{2-Oxa-6-azaspiro[3.3]heptane-6-carbonyl}-N-(pyrazin-2-yl)-N-({5-[5-(trifluoromethyl)-1,2,4-oxadiazol-3-yl]thiophen-2-yl}methyl)pyridazin-3-amine]
3 | > 10000 | ≤ 1000 | ≤ 10000 | CC(C)(O)c1cnnc(N(Cc2ccc(-c3noc(C(F)(F)F)n3)s2)c2cnccn2)c1 [Example GS, 2-{6-[(Pyrazin-2-yl)({5-[5-(trifluoromethyl)-1,2,4-oxadiazol-3-yl]thiophen-2-yl}methyl)amino]pyridazin-4-yl}propan-2-ol]
4 | > 10000 | ≤ 10000 | ≤ 10000 | O=C(c1cnnc(N(Cc2ccc(-c3noc(C(F)(F)F)n3)s2)c2cnccn2)c1)N1CC(F)(F)C1 [Example FT, 5-(3,3-Difluoroazetidine-1-carbonyl)-N-(pyrazin-2-yl)-N-({5-[5-(trifluoromethyl)-1,2,4-oxadiazol-3-yl]thiophen-2-yl}methyl)pyridazin-3-amine]
5 | > 10000 | ≤ 1000 | ≤ 10000 | Cc1cncc(N(Cc2ccc(-c3noc(C(F)(F)F)n3)s2)c2cnccn2)n1 [Example BP, 6-Methyl-N-(pyrazin-2-yl)-N-({5-[5-(trifluoromethyl)-1,2,4-oxadiazol-3-yl]thiophen-2-yl}methyl)pyrazin-2-amine]
6 | > 10000 | ≤ 1000 | ≤ 10000 | FC(F)(F)c1nc(-c2ccc(CN(c3cnccn3)c3cc(N4CCOCC4)cnn3)s2)no1 [Example FP, 5-(Morpholin-4-yl)-N-(pyrazin-2-yl)-N-({5-[5-(trifluoromethyl)-1,2,4-oxadiazol-3-yl]thiophen-2-yl}methyl)pyridazin-3-amine]
7 | > 10000 | ≤ 1000 | ≤ 10000 | O=C(c1cncc(N(Cc2ccc(-c3noc(C(F)(F)F)n3)s2)c2cnccn2)c1)N1CCOCC1 [Example GR, N-[5-(Morpholine-4-carbonyl)pyridin-3-yl]-N-({5-[5-(trifluoromethyl)-1,2,4-oxadiazol-3-yl]thiophen-2-yl}methyl)pyrazin-2-amine]
8 | ≤ 10000 | ≤ 1000 | ≤ 10000 | FC(F)(F)c1nc(-c2ccc(CN(c3cnccn3)c3cnc(N4CCOCC4)cn3)s2)no1 [Example BM, 5-(Morpholin-4-yl)-N-(pyrazin-2-yl)-N-({5-[5-(trifluoromethyl)-1,2,4-oxadiazol-3-yl]thiophen-2-yl}methyl)pyrazin-2-amine]
9 | > 10000 | ≤ 10000 | ≤ 10000 | FC(F)c1cnnc(N(Cc2ccc(-c3noc(C(F)(F)F)n3)s2)c2cnccn2)c1 [Example GV, 5-(Difluoromethyl)-N-(pyrazin-2-yl)-N-({5-[5-(trifluoromethyl)-1,2,4-oxadiazol-3-yl]thiophen-2-yl}methyl)pyridazin-3-amine]

Further lines, the molecule ahead of its results:

Row | SMILES | IC50 [1] [nM] | IC50 (Human HDAC4) [nM] | IC50 (Human HDAC8) [nM]
10 | O=C(c1ccc(N(Cc2ccc(-c3noc(C(F)(F)F)n3)s2)c2cnccn2)nn1)N1C[C@@H]2C[C@H]1C[S@@+]2[O-] [Example FR, (1S,2R,4S)-5-{6-[(Pyrazin-2-yl)({5-[5-(trifluoromethyl)-1,2,4-oxadiazol-3-yl]thiophen-2-yl}methyl)amino]pyridazine-3-carbonyl}-2-thia-5-azabicyclo[2.2.1]heptan-2-ium-2-olate] | ≤ 10000 | ≤ 500 | ≤ 10000
11 | COc1nccnc1N(Cc1ccc(-c2noc(C(F)(F)F)n2)s1)c1cnccn1 [Example BF, 3-Methoxy-N-(pyrazin-2-yl)-N-({5-[5-(trifluoromethyl)-1,2,4-oxadiazol-3-yl]thiophen-2-yl}methyl)pyrazin-2-amine] | > 10000 | ≤ 10000 | ≤ 10000
12 | NC(=O)c1nccnc1N(Cc1ccc(-c2noc(C(F)(F)F)n2)s1)c1cnccn1 [Example GO, 3-[(Pyrazin-2-yl)({5-[5-(trifluoromethyl)-1,2,4-oxadiazol-3-yl]thiophen-2-yl}methyl)amino]pyrazine-2-carboxamide] | > 10000 | ≤ 10000 | ≤ 10000
13 | FC(F)(F)c1cnc(N(Cc2ccc(-c3noc(C(F)(F)F)n3)s2)c2cnccn2)cn1 [Example BK, N-(Pyrazin-2-yl)-5-(trifluoromethyl)-N-({5-[5-(trifluoromethyl)-1,2,4-oxadiazol-3-yl]thiophen-2-yl}methyl)pyrazin-2-amine] | > 10000 | ≤ 10000 | ≤ 10000
14 | Cc1nccnc1N(Cc1ccc(-c2noc(C(F)(F)F)n2)s1)c1cnccn1 [Example BE, 3-Methyl-N-(pyrazin-2-yl)-N-({5-[5-(trifluoromethyl)-1,2,4-oxadiazol-3-yl]thiophen-2-yl}methyl)pyrazin-2-amine] | > 10000 | ≤ 500 | ≤ 10000
15 | FC(F)(F)c1nc(-c2ccc(CN(c3ccccn3)c3ccccn3)s2)no1 [Example U, N-(Pyridin-2-yl)-N-({5-[5-(trifluoromethyl)-1,2,4-oxadiazol-3-yl]thiophen-2-yl}methyl)pyridin-2-amine] | > 10000 | ≤ 10000 | > 10000
16 | O=C(c1cnnc(N(Cc2ccc(-c3noc(C(F)(F)F)n3)s2)c2cnccn2)c1)N1CC(O)(C(F)(F)F)C1 [Example GD, 1-{6-[(Pyrazin-2-yl)({5-[5-(trifluoromethyl)-1,2,4-oxadiazol-3-yl]thiophen-2-yl}methyl)amino]pyridazine-4-carbonyl}-3-(trifluoromethyl)azetidin-3-ol] | ≤ 10000 | ≤ 10000 | ≤ 10000
17 | O=C(c1cnnc(N(Cc2ccc(-c3noc(C(F)(F)F)n3)s2)c2cnccn2)c1)N1C2CCC1COC2 [Example GB, 5-{3-Oxa-8-azabicyclo[3.2.1]octane-8-carbonyl}-N-(pyrazin-2-yl)-N-({5-[5-(trifluoromethyl)-1,2,4-oxadiazol-3-yl]thiophen-2-yl}methyl)pyridazin-3-amine] | > 10000 | ≤ 10000 | ≤ 10000
18 | O=C(c1nccnc1N(Cc1ccc(-c2noc(C(F)(F)F)n2)s1)c1cnccn1)N1CC(O)(C(F)(F)F)C1 [Example GQ, 1-{3-[(Pyrazin-2-yl)({5-[5-(trifluoromethyl)-1,2,4-oxadiazol-3-yl]thiophen-2-yl}methyl)amino]pyrazine-2-carbonyl}-3-(trifluoromethyl)azetidin-3-ol] | > 10000 | ≤ 10000 | ≤ 10000
